Data set [1] has as its target T1, NTD (isolated N-terminal SPOUT domain of EcTrmJ) (Escherichia coli, UniProt P0AE01).
T1 sequence (P0AE01 1-170): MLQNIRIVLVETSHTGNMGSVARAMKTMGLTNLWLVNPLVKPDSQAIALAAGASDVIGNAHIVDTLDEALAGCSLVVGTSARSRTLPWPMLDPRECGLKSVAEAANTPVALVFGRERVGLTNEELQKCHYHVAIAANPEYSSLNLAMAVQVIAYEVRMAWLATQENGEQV
In words: isothermal titration calorimetry. It is filed as binding. To be noted: 25 °C, 20 mM Tris-HCl pH 7.5, 100 mM NaCl, 10 mM MgCl2.

The data set “crystal structure” concerns the molecule itself. The data set is described as follows: crystal structure.

One may read the stoichiometry N as a count of units in the complex or per binding partner.

Take `Nc1ncnc2c1ncn2[C@@H]1O[C@H](CSCC[C@H](N)C(=O)O)[C@@H](O)[C@H]1O` [SAH]: the KD result in data set [1] is listed as “NTD alone could bind SAH as effectively as full-length EcTrmJ”.

B1: Escherichia coli TrmJ (EcTrmJ), tRNA Xm32 methyltransferase, full-length (enzyme, Escherichia coli K-12 MG1655, UniProt P0AE01 1-246, looked up)
chain: MLQNIRIVLVETSHTGNMGSVARAMKTMGLTNLWLVNPLVKPDSQAIALAAGASDVIGNAHIVDTLDEALAGCSLVVGTSARSRTLPWPMLDPRECGLKSVAEAANTPVALVFGRERVGLTNEELQKCHYHVAIAANPEYSSLNLAMAVQVIAYEVRMAWLATQENGEQVEHEETPYPLVDDLERFYGHLEQTLLATGFIRENHPGQVMNKLRRLFTRARPESQELNILRGILASIEQQNKGNKAE
Turning to B1, the “stoichiometry N” value in “crystal structure” came to 2.

The record behind these values is publication PMC4551947 (Nucleic Acids Research, 2015).
